Measurements published in US9475816B2, “Substituted-1,4-dihydropyrazolo[4,3-b]indoles” (TAKEDA PHARMACEUTICAL COMPANY LIMITED, priority 2012, dated 2016).

What was measured:
[1] = genetically and diet-induced obese mice; cited from earlier work
angiogenesis = conditions: cited from earlier work
[2] = mice; cited from earlier work
human MetAP2 enzyme [3] = molecular target: T1, human MetAP2 enzyme (Homo sapiens, UniProt P50579); test: MetAP2 enzyme assay, MetAP2 enzyme complexed with manganese ions; conditions: MetAP2 Mn pIC50, 10 μM MnCl2; -log(IC50), IC50 molar
T1 sequence (P50579 whole entry): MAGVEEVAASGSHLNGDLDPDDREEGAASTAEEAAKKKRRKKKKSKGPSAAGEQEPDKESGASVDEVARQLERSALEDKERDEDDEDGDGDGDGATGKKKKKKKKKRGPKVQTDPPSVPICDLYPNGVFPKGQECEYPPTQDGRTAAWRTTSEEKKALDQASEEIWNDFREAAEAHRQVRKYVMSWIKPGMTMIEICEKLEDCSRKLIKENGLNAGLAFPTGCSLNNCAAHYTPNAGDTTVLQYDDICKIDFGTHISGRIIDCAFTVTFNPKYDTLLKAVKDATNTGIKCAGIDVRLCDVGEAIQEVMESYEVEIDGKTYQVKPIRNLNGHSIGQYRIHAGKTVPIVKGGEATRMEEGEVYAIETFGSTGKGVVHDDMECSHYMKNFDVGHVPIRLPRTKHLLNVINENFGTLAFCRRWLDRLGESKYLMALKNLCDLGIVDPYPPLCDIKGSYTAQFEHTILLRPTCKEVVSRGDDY
Method: (§1) DNA encoding the full-length sequence of human MetAP2 enzyme is amplified by PCR and cloned into a pFastBac expression vector (Invitrogen). Recombinant baculovirus incorporating the MetAP2 construct is generated by transposition using the Bac-to-Bac system (Invitrogen). The expression of recombinant protein is carried out by infection of Spodoptera frugiperda Sf9 cells (Invitrogen) in 5L Wave Bioreactors (Wave Biotech). Recombinant protein is isolated from cellular extracts by binding to an SP Hitrap Fast Flow or SP Sepharose (Sigma) column, and the protein is eluted using a NaCl gradient. Partially purified extracts of MetAP2 are further purified by an AKTA FPLC over a Superdex-200 column (GE). The purity of MetAP2 protein is determined on denaturing SDS-PAGE gel.
(§2) The results for each well are expressed as percent inhibition and calculated using the equation:

human MetAP2 enzyme [4] = molecular target: T1, human MetAP2 enzyme; test: MetAP2 enzyme assay, MetAP2 enzyme complexed with cobalt ions; conditions: MetAP2 Co pIC50, 10 μM CoCl2; -log(IC50), IC50 molar
Method: as §1, §2

Molecule | IC50 (human MetAP2 enzyme [3]) [nM] | IC50 (human MetAP2 enzyme [4]) [nM] | food intake, body weight, fat mass, size of adipocytes [1] | angiogenesis (angiogenesis) | effect on diet-induced obesity [2]
beloranib hemioxalate [CKD-732] | – | – | decrease food intake, body weight, fat mass, and the size of adipocytes | – | –
CO[C@@H]1[C@H](OC(=O)/C=C/C=C/C=C/C=C/C(=O)O)CC[C@]2(CO2)[C@H]1[C@@]1(C)O[C@@H]1CC=C(C)C [fumagillin] | – | – | – | inhibit angiogenesis | impair diet-induced obesity
Cn1nc(C(N)=O)cc1-n1c2ccc(F)cc2c2[nH]ncc21 [Example 48, 5-(7-Fluoropyrazolo[4,3-b]indol-4(1H)-yl)-1-methyl-1H-pyrazole-3-carboxamide] | 12.6 | 15.8 | – | – | –

The next lines start with results.

IC50 (human MetAP2 enzyme [3]) [nM] | IC50 (human MetAP2 enzyme [4]) [nM] | Molecule | food intake, body weight, fat mass, size of adipocytes [1] | angiogenesis (angiogenesis) | effect on diet-induced obesity [2]
25.1 | 20 | Cc1cc(C(=O)N(C)C)ncc1-n1c2ccc(F)cc2c2[nH]ncc21 [Example 108, 5-(7-Fluoropyrazolo[4,3-b]indol-4(1H)-yl)-N,N,4-trimethylpicolinamide] | – | – | –
6.31 | 12.6 | Cc1nc(N2CC[C@@H](C(N)=O)C2)ncc1-n1c2ccc(F)cc2c2[nH]ncc21 [Example 20, (3R)-1-(5-(7-Fluoropyrazolo[4,3-b]indol-4(1H)-yl)-4-methylpyrimidin-2-yl)pyrrolidine-3-carboxamide] | – | – | –
79.4 | 63.1 | Cc1nc(N2CC[C@H](F)C2)ncc1-n1c2ccc(F)cc2c2[nH]ncc21 [Example 34, 7-Fluoro-4-(2-((S)-3-fluoropyrrolidin-1-yl)-4-methylpyrimidin-5-yl)-1,4-dihydropyrazolo[4,3-b]indole] | – | – | –
